According to patent publication US6517870B1, “Oral formulation comprising biguanide and an organic acid” (Sumitomo Pharmaceuticals Company, Limited, priority 1998, dated 2003):
Counter-ions that a name gives are not always drawn.

Assay: Stability experiment: remaining amount of metformin by HPLC after heating
Assay type: physicochemical
Details: below pH 3.5
Description: Tasting and stability experiments on the solutions at various pH of Example 13 were carried out, in the same manner as Experiment 1. A stability experiment was carried out by measuring the remaining amount of metformin in the solutions with HPLC after heating the solutions in vials at 60 C. for 2 weeks.

CN(C)C(=N)N=C(N)N [Metformin hydrochloride]
stability in solution: not stable
